Experimental data: patent publication US20190315823A1, “SMALL CATIONIC ANTI-BIOFILM AND IDR PEPTIDES” (priority 2013, published 2019)
Ends that are not written are not given here.

Columns and labels:
[1] = system: human peripheral blood mononuclear cells (MCP-1); experiment: SPOT-synthesized derivative screen: production of chemokine MCP-1; assay type: cell-based; conditions: Table 12, No LPS, human PBMC, peptide at ~18-24 μM; for MCP1: background subtracted 139 (HH2 derivatives), 170 (1018 derivatives), 242 (1002 and hybrid peptides) pg/ml
Procedure, shortened: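 PBMC from heparinized healthy-donor venous blood, Ficoll-separated, cultured at 0.75 to 1×10^6 cells/ml, 37 °C, 5% CO2, under the treatment regimens. MCP-1 in cell-free supernatants measured by capture ELISA.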

[2] = system: methicillin resistant Staphylococcus aureus (MRSA) biofilm; conditions: approximate peptide concentration […] (around 3 μg/ml); compared to untreated samples
Procedure, shortened: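 Static biofilm assay: 1/100 dilutions of overnight cultures grown in BM2 medium (pH 7, glucose, Casamino Acids) or Luria Broth with peptide added at time zero. After 22–46 h, adherent biofilm was stained with crystal violet and read at 595 nm. Some peptides were also tested on K. pneumoniae under flow in a Bioflux system.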

[3] = system: LPS-stimulated human peripheral blood mononuclear cells (IL1-β); assay type: cell-based; conditions: Table 12, cells stimulated with 10 ng/ml LPS; for IL1β Production: LPS alone 1313 (HH2 derivatives), 1927 (1018 derivatives), 2455 (1002 and hybrid peptides) pg/ml

Row | Substance | Fold increase in MCP1 cf. untreated cells [1] | MCP1 [1] [pg/mL] | % Biofilm inhibition [2] [%] | Fold change in IL1β relative to no peptide LPS stimulated cells [3] | IL1β Production [3] [pg/mL]
1 | 1018-V9: single substituted 1018 peptide (VRLIVAVRVWRR-NH2) [Peptide 1018-V9] | 105 | 17711 | 53 | 0.11 | 142
2 | 1018-A4: single substituted 1018 peptide (VRLAVAVRIWRR-NH2) [Peptide 1018-A4] | 0.5 | -88 | 38 | 0.40 | 521
3 | 1002-Q8: single substituted 1002 peptide (VQRWLIVQRIRK-NH2) [Peptide 1002-Q8] | 0.9 | -36.2 | 20 | 0.66 | 1608
4 | HH2-V8: single substituted HH2 peptide (VQLRIRVVVIRA-NH2) | 45 | 7460 | 66 | 0.53 | 691
5 | HH2-G6: single substituted HH2 peptide (VQLRIGVAVIRA-NH2) | 8.6 | 1287 | 33 | 1.08 | 1423
6 | 1002-L10: single substituted 1002 peptide (VQRWLIVWRLRK-NH2) [Peptide 1002-L10] | 3.0 | 493.6 | 65 | 0.05 | 127
7 | HH2-K11: single substituted HH2 peptide (VQLRIRVAVIKA-NH2) | 18 | 2884 | 43 | 1.21 | 1593
8 | HH2-Q11: single substituted HH2 peptide (VQLRIRVAVIQA-NH2) | 17 | 2759 | 63 | 0.78 | 1020
9 | 1018-W11: single substituted 1018 peptide (VRLIVAVRIWWR-NH2) [Peptide 1018-W11] | 0.8 | -28 | 53 | 0.62 | 814
10 | 1002-W7: single substituted 1002 peptide (VQRWLIWWRIRK-NH2) [Peptide 1002-W7] | 1.5 | 128.3 | 62 | 0.05 | 127
11 | 1002-V10: single substituted 1002 peptide (VQRWLIVWRVRK-NH2) [Peptide 1002-V10] | 2.3 | 308.0 | 63 | 0.05 | 127
12 | 1018-L5: single substituted 1018 peptide (VRLILAVRIWRR-NH2) [Peptide 1018-L5] | 3.0 | 335 | 71 | 0.12 | 162
13 | 1002-A10: single substituted 1002 peptide (VQRWLIVWRARK-NH2) [Peptide 1002-A10] | 2.0 | 245.4 | 45 | 0.05 | 127
14 | 1018-I10: single substituted 1018 peptide (VRLIVAVRIIRR-NH2) [Peptide 1018-I10] | 1.3 | 56 | 58 | 0.10 | 135
15 | HH2-R12: single substituted HH2 peptide (VQLRIRVAVIRR-NH2) | 51 | 8574 | 80 | 1.23 | 1618
16 | 1018-V11: single substituted 1018 peptide (VRLIVAVRIWVR-NH2) [Peptide 1018-V11] | 1.0 | 2 | 29 | 0.94 | 1240
17 | 1018-I5: single substituted 1018 peptide (VRLIIAVRIWRR-NH2) [Peptide 1018-I5] | 13 | 2103 | 60 | 0.10 | 127
18 | 1002-L11: single substituted 1002 peptide (VQRWLIVWRILK-NH2) [Peptide 1002-L11] | 9.5 | 2048.4 | 61 | 0.05 | 127
19 | 1002-A8: single substituted 1002 peptide (VQRWLIVARIRK-NH2) [Peptide 1002-A8] | 0.9 | -36.2 | 52 | 0.09 | 219
20 | 1018-K7: single substituted 1018 peptide (VRLIVAKRIWRR-NH2) [Peptide 1018-K7] | 1.5 | 92 | 23 | 0.93 | 1222
21 | 1018-R1: single substituted 1018 peptide (RRLIVAVRIWRR-NH2) [Peptide 1018-R1] | 5.9 | 832 | 46 | 0.13 | 176
22 | 1018-R3: single substituted 1018 peptide (VRRIVAVRIWRR-NH2) [Peptide 1018-R3] | 3.0 | 349 | 29 | 1.25 | 1636
23 | HH2-W12: single substituted HH2 peptide (VQLRIRVAVIRW-NH2) | 44 | 7325 | 58 | 0.32 | 420
24 | 1018-L1: single substituted 1018 peptide (LRLIVAVRIWRR-NH2) [Peptide 1018-L1] | 4.1 | 531 | 72 | 0.21 | 282
25 | 1002-I3: single substituted 1002 peptide (VQIWLIVWRIRK-NH2) [Peptide 1002-I3] | 13.2 | 2953.7 | 62 | 0.05 | 127
26 | 1018-Q9: single substituted 1018 peptide (VRLIVAVRQWRR-NH2) [Peptide 1018-Q9] | 0.8 | -28 | 38 | 1.00 | 1313
27 | HH2-K9: single substituted HH2 peptide (VQLRIRVAKIRA-NH2) | 2.1 | 180 | 52 | 1.16 | 1520
28 | HH2-G1: single substituted HH2 peptide (GQLRIRVAVIRA-NH2) | 1.9 | 157 | 65 | 1.17 | 1533
29 | HH2-G3: single substituted HH2 peptide (VQGRIRVAVIRA-NH2) | 1.7 | 117 | 21 | 1.29 | 1687
30 | 1018-K9: single substituted 1018 peptide (VRLIVAVRKWRR-NH2) [Peptide 1018-K9] | 1.1 | 15 | 60 | 0.23 | 300
